Assay results taken from US11512111B2, “Yeats inhibitors and methods of use thereof” (The University of Hong Kong, priority 2017, dated 2022).
“Also recorded” adds a separate entry of the source. Residues, ends and D or L forms follow the SMILES beside them. *: point of attachment. Oxazole(5-CO) = O=C(c1cnco1)*; Crotonyl(E) = C/C=C/C(=O)*; 2Furoyl = O=C(c1ccco1)*; Cbz = O=C(OCc1ccccc1)*; X1 = O=C(c1ccoc1)*

Assays:
Format in all cases: binding
AF9 YEATS domain [1] = biological target: T1, AF9 YEATS domain (Homo sapiens, UniProt P42568); assay: Isothermal titration calorimetry (ITC); settings: for N (sites) / ΔS / ΔH / Kd: ITC; for ΔH: Table 3; for binding enhancement over the native crotonyl group: ITC Kd ratio
T1 construct: His-AF9 (1-138); His (N); made in house; host or cells: E. coli Rosetta
T1 sequence (P42568 1-138): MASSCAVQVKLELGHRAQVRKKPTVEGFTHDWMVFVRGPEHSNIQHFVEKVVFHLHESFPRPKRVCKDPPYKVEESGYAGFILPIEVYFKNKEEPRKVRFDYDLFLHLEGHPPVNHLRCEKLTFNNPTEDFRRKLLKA
Description: ^1H and ^13C NMR spectra were recorded on Bruker UltraShield 400 or 600 MHz spectrometers and were calibrated using residual undeuterated solvent as an internal reference. Chemical shifts were reported in ppm, and coupling constant J was reported in Hz. Peptides were analyzed by LC-MS with an Agilent 1260 Infinity HPLC system connected to a Thermo Finnigan LCQ DecaXP MS detector. Peptides were purified on a preparative HPLC system with Waters 2535 Quaternary Gradient Module, Waters 515 HPLC pump, Waters SFO System Fluidics Organizer, and Waters 2767 Sample Manager. Photo-cross-linking was performed with an ENF-260C/FE hand-hang UV lamp (Spectroline). In-gel fluorescence scanning was performed using a Typhoon 9410 variable mode imager from GE Healthcare Life Sciences (excitation 532 nm, emission 580 nm). Images of Coomassie blue staining were acquired by MyECL Imager from Thermo Scientific. All images were processed by ImageJ software (National Institutes of Health), and contrast was adjusted appropriately. ITC experiments were performed with a MicroCal iTC200 titration calorimeter (MicroCal). IC50 and dissociation constants were fit with Origin 7.0 software package (OriginLab).
To further validate the reliability of the results obtained from the photo-cross-linking-based competition assay, we performed isothermal titration calorimetry (ITC) to determine the direct binding affinities of the inhibitors toward the AF9 YEATS domain. […] The ITC measurements were in agreement with the IC50 data, indicating the reliability of the results obtained from the photo-cross-linking-based competition assay.

AF9 YEATS domain [2] = biological target: T1, AF9 YEATS domain; assay: Photo-cross-linking-based competition assay (photoaffinity probe, click chemistry, in-gel fluorescence); settings: for IC50: competition with photoaffinity probe, in-gel fluorescence; for preliminary screening of competitors: inhibitory activity on AF9 YEATS domain: fluorescent signal intensity at 0.3 μM compared with peptide control
Description: Mobile phase used were water with 0.1% trifluoroacetic acid (buffer A) and 90% acetonitrile in water with 0.1% trifluoroacetic acid (buffer B). The purity (>95%) and identity of peptides were confirmed by LC-MS. The inhibitory activities of the inhibitors were determined by a photo-cross-linking-based competition assay. […] The reactions were incubated for 1 h at r.t . . . . The reactions were quenched by adding 5 volumes of ice-cold acetone and placed at −20° C. overnight to precipitate proteins. After protein precipitation, samples were centrifuged at 6000×g for 5 min at 4° C. The supernatant was discarded and the pellet was washed with ice-cooled methanol twice and air-dried for 10 min. […] Samples were then resolved by SDS-PAGE. The labeled proteins were visualized by scanning the gel on a Typhoon 9410 variable mode imager (excitation 532 nm, emission filter 580 nm). A photo-cross-linking based method was used in this study to estimate inhibitory activity (FIG. 28). This method requires the use of a photoaffinity probe. The probe (probe 1 (SEQ ID NO:48), see below) is derived from a crotonylated peptide, ligand of the protein, carrying a photo-cross-linker and a terminal alkyne as bioorthogonal. The YEATS domain is incubated and bound to the probe through Kcr-dependent recognition. Upon UV-irradiation, the photo-cross-linker is activated and rapidly cross-linked to the protein, converting the non-covalent protein-probe interaction into a covalent linkage. The probe-labeled protein is subsequently conjugated to an azide-functionalized fluorescence dye (for example, rhodamine-N3, Rho-N3) via Cu(I)-catalyzed azide-alkyne cycloaddition (CuAAC, or “click” chemistry). After SDS-PAGE, the protein can be visualized by in-gel fluorescence scanning. If photo-cross-linking of the YEATS domain with photoaffinity probe is performed in the presence of an inhibitor, which occupies the Kcr binding pocket of the YEATS domain and thus inhibits the protein-probe interaction, the percentage of the YEATS domain in the sample that is labeled by the probe will be reduced. The in-gel fluorescence intensity detected will also be decreased. By varying the concentration of inhibitor added in the sample and quantifying the resulting fluorescence intensities, a competition curve of the inhibitor toward the protein-probe interaction will be obtained, which can be used to estimate the IC50 value. Due to the covalent nature of photo-cross-linking, weak protein-protein interactions can be captured and eventually visualized. The protein concentration used in the assay can be as low as several nanograms per microliter, while the fluorescence signal can still be robustly detected and quantified.

ENL YEATS domain = biological target: T2, ENL YEATS domain (Homo sapiens, UniProt Q03111); assay: Photo-cross-linking-based competition assay; settings: competition with photoaffinity probe, in-gel fluorescence
T2 construct: His-SUMO-ENL (1-138); His (N); SUMO (N); made in house; host or cells: E. coli Rosetta
T2 sequence (Q03111 1-138): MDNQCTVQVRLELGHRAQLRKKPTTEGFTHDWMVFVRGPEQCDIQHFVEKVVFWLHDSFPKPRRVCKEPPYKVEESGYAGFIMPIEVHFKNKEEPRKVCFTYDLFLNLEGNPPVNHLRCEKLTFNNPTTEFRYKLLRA

## C/C=C/C(=O)NCCCC[C@H](NC(=O)[C@H](CCCNC(=N)N)NC(=O)[C@H](C)NC(=O)[C@@H](NC(=O)[C@H](CCC(N)=O)NC(=O)[C@@H](N)CCCCN)[C@@H](C)O)C(=O)N[C@@H](CO)C(=O)N[C@H](C(=O)NCC(=O)NCC(N)=O)[C@@H](C)O [Compound 85, reference compound] (H-KQTARK(Crotonyl(E))STGG-NH2; N-terminus and C-terminus assumed)
AF9 YEATS domain [1]
  N (sites): 0.96 ± 0.02 sites
  ΔS: −17.8 cal/mol/deg
  ΔH: -11.92 ± 0.423 kcal/mol
AF9 YEATS domain [2]
  IC50: 6000 nM

## C[C@H](NC(=O)[C@@H](NC(=O)[C@H](CCC(N)=O)NC(=O)Cc1ccc2ccccc2c1)[C@@H](C)O)C(=O)N[C@@H](CCCNC(=N)N)C(=O)N[C@@H](CCCCNC(=O)c1ccco1)C(N)=O [Compound 74]
AF9 YEATS domain [2]
  IC50: 226 nM
AF9 YEATS domain [2]; listed as Cbz-4
  preliminary screening of competitors: inhibitory activity on AF9 YEATS domain: comparable binding affinity; also recorded: comparable inhibitory activities

## C[C@H](NC(=O)[C@@H](NC(=O)[C@@H](N)CCC(N)=O)[C@@H](C)O)C(=O)N[C@@H](CCCNC(=N)N)C(=O)N[C@@H](CCCCNC(=O)c1ccco1)C(N)=O [Compound 24]
AF9 YEATS domain [2]
  IC50: 4500 nM

## 65 (Cbz-NTARK-NH2; not fully specified (residue 5); also: K5: modified crotonyl group with attached furancarbonyl side chain) [Compound 65]
AF9 YEATS domain [2]
  preliminary screening of competitors: inhibitory activity on AF9 YEATS domain: activity of inhibitor drops

## C[C@H](NC(=O)[C@@H](NC(=O)[C@H](CCC(N)=O)NC(=O)[C@@H](N)CCCCN)[C@@H](C)O)C(=O)N[C@@H](CCCNC(=N)N)C(=O)N[C@@H](CCCCNC(=O)c1ccco1)C(N)=O [Compound 25] (H-KQTARK(2Furoyl)-NH2; N-terminus and C-terminus assumed)
AF9 YEATS domain [2]
  IC50: 460 nM

## C[C@H](NC(=O)[C@@H](NC(=O)[C@H](CCC(N)=O)NC(=O)[C@@H](N)CCCCN)[C@@H](C)O)C(=O)N[C@@H](CCCNC(=N)N)C(=O)N[C@@H](CCCCNC(=O)c1cnco1)C(=O)N[C@@H](CO)C(=O)N[C@H](C(=O)NCC(=O)NCC(N)=O)[C@@H](C)O [Compound 13] (H-KQTARK(Oxazole(5-CO))STGG-NH2)
AF9 YEATS domain [1]
  Kd: 1000 nM
  N (sites): 1.04 ± 0.02 sites
  ΔS: −13.8 cal/mol/deg
  binding enhancement over the native crotonyl group: 14.8 fold
  ΔH: -12.29 ± 0.376 kcal/mol
AF9 YEATS domain [2]
  IC50: 740 nM

## C[C@H](NC(=O)[C@@H](NC(=O)[C@H](CCC(N)=O)NC(=O)[C@@H](N)CCCCN)[C@@H](C)O)C(=O)N[C@@H](CCCNC(=N)N)C(=O)N[C@@H](CCCCNC(=O)c1ccoc1)C(=O)N[C@@H](CO)C(=O)N[C@H](C(=O)NCC(=O)NCC(N)=O)[C@@H](C)O [Compound 8] (H-KQTARK(X1)STGG-NH2)
AF9 YEATS domain [2]
  IC50: 1700 nM

## 45 (Cbz-QTAQK-NH2; not fully specified (residue 5); also: K5: modified crotonyl group with attached furancarbonyl side chain) [Compound 45]
AF9 YEATS domain [2]
  preliminary screening of competitors: inhibitory activity on AF9 YEATS domain: interact with the AF9 YEATS domain weakly

## C[C@@H]1NC(=O)[C@H]([C@H](C)O)NC(=O)[C@@H](NC(=O)OCc2ccccc2)Cn2cc(nn2)CNC(=N)NCCC[C@H](C(=O)N[C@@H](CCCCNC(=O)c2cnco2)C(N)=O)NC1=O [Compound 82]
ENL YEATS domain
  IC50: 9230 nM
AF9 YEATS domain [2]
  IC50: 5100 nM

## C[C@H](NC(=O)[C@@H](NC(=O)[C@H](CCC(N)=O)NC(=O)OCc1ccccc1)[C@@H](C)O)C(=O)N[C@@H](CCCNC(=N)N)C(=O)N[C@@H](CCCCNC(=O)c1ccco1)C(N)=O [peptide control]
AF9 YEATS domain [2]
  IC50: 189 nM

## CC(C)C[C@H](NC(=O)[C@@H](NC(=O)[C@H](CCC(N)=O)NC(=O)OCc1ccccc1)[C@@H](C)O)C(=O)N[C@@H](CCCNC(=N)N)C(=O)N[C@@H](CCCCNC(=O)c1ccco1)C(N)=O [Compound 47] (Cbz-QTLRK(2Furoyl)-NH2; N-terminus and C-terminus assumed)
AF9 YEATS domain [2]; listed as A7-L
  preliminary screening of competitors: inhibitory activity on AF9 YEATS domain: comparable results; also recorded: comparable inhibitory activities

## C[C@@H]1NC(=O)[C@H]([C@H](C)O)NC(=O)[C@@H](NC(=O)OCc2ccccc2)CCCCNC(=N)NCCC[C@H](C(=O)N[C@@H](CCCCNC(=O)c2ccco2)C(N)=O)NC1=O [Compound 78]
ENL YEATS domain
  IC50: 43600 nM
AF9 YEATS domain [2]
  IC50: 1800 nM

## 43 (Cbz-QTAKK-NH2; not fully specified (residue 5); also: K5: modified crotonyl group with attached furancarbonyl side chain) [Compound 43]
AF9 YEATS domain [2]
  preliminary screening of competitors: inhibitory activity on AF9 YEATS domain: interact with the AF9 YEATS domain weakly

## C[C@H](NC(=O)[C@H](CO)NC(=O)[C@H](CCC(N)=O)NC(=O)OCc1ccccc1)C(=O)N[C@@H](CCCNC(=N)N)C(=O)N[C@@H](CCCCNC(=O)c1ccco1)C(N)=O [Compound 55] (Cbz-QSARK(2Furoyl)-NH2; N-terminus and C-terminus assumed)
AF9 YEATS domain [2]
  preliminary screening of competitors: inhibitory activity on AF9 YEATS domain: comparable inhibitory activities

## C[C@H](NC(=O)[C@@H](NC(=O)[C@H](CCC(N)=O)NC(=O)[C@@H](N)CCCCN)[C@@H](C)O)C(=O)N[C@@H](CCCNC(=N)N)C(=O)N[C@@H](CCCCNC(=O)c1ccco1)C(=O)N[C@@H](CO)C(=O)N[C@H](C(=O)NCC(=O)NCC(N)=O)[C@@H](C)O [Compound 7] (H-KQTARK(2Furoyl)STGG-NH2)
AF9 YEATS domain [1]
  Kd: 3300 nM
  N (sites): 0.91 ± 0.01 sites
  ΔS: −15.9 cal/mol/deg
  binding enhancement over the native crotonyl group: 4.5 fold
  ΔH: -12.23 ± 0.11 kcal/mol
AF9 YEATS domain [2]
  IC50: 1300 nM

## C[C@@H](O)[C@H](NC(=O)[C@H](CCC(N)=O)NC(=O)OCc1ccccc1)C(=O)N[C@@H](Cc1c[nH]c2ccccc12)C(=O)N[C@@H](CCCNC(=N)N)C(=O)N[C@@H](CCCCNC(=O)c1ccco1)C(N)=O [Compound 49] (Cbz-QTWRK(2Furoyl)-NH2; N-terminus and C-terminus assumed)
AF9 YEATS domain [2]; listed as A7-W
  preliminary screening of competitors: inhibitory activity on AF9 YEATS domain: comparable results; also recorded: comparable inhibitory activities

## C[C@H](NC(=O)[C@H](C)NC(=O)[C@H](CCC(N)=O)NC(=O)OCc1ccccc1)C(=O)N[C@@H](CCCNC(=N)N)C(=O)N[C@@H](CCCCNC(=O)c1ccco1)C(N)=O [Compound 53] (Cbz-QAARK(2Furoyl)-NH2; N-terminus and C-terminus assumed)
AF9 YEATS domain [2]
  preliminary screening of competitors: inhibitory activity on AF9 YEATS domain: comparable inhibitory activities
